Earlier results as cited in publication PMC6727202 (Molecular pharmaceutics, 2019).

Tested on: kidney

NCCCC[C@H](N)C(=O)O [lysine]
Reduction of kidney uptake of radiolabeled octreotide (lysine): ~ 35%
Reduction of renal uptake of radiolabeled octreotide (oral or intravenous administration of lysine): up to 40%
